Experimental data reported in paper PMC5071164 (Biochimica et biophysica acta, 2016).
Like-named read-outs stand apart in the source and are kept apart here.

What was measured:
[1] = target: T1, Farnesoid X receptor (FXR) ligand binding domain (Homo sapiens, UniProt Q96RI1); test: Intrinsic tryptophan fluorescence quenching titration
T1 sequence (Q96RI1 203-486): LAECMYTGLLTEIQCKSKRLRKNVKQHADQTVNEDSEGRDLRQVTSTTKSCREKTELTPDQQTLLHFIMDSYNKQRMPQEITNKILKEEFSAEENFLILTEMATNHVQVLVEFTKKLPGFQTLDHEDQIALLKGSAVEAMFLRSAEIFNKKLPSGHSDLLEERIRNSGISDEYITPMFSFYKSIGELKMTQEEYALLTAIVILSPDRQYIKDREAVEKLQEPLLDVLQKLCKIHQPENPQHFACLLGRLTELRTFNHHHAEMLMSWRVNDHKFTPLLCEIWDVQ

[2] = target: T1, Farnesoid X receptor (FXR) ligand binding domain; test: as above; remark: listed apart in the source

Structure (SMILES)	Kd [1] [nM]	Kd [2] [nM]
CC(C)=CCc1c(O)cc(O)c2c1O[C@H](c1ccc(O)cc1)CC2=O [8-PN, 8-prenylnaringenin]	2200 ± 50	
COc1cc(O)c(CC=C(C)C)c2c1C(=O)CC(c1ccc(O)cc1)O2 (stereo not drawn) [IX, isoxanthohumol]	5920 ± 250	
COc1cc(O)c(CC=C(C)C)c(O)c1C(=O)/C=C/c1ccc(O)cc1 [XN, xanthohumol]		2680 ± 110
